Reference: patent US20130096163A1, “Injectable dosage form of flupirtine” (AWD.PHARMA GMBH & CO. KG, priority 2010, published 2013)
Read-outs that look alike come from different tables or passages of the source.

Test: Solubility of flupirtine salts in water (stirring a suspension, filtration, HPLC-UV)
Format: physicochemical
Method: The solubility of the salt used is determined by stirring a suspension of a defined quantity of the corresponding salt for 30 minutes in a closed container in fully desalinated water at 25° C. The undissolved portion of the salt is filtered off, the filtrate is diluted to a suitable concentration range, and the flupirtine concentration of the solution determined using HPLC-UV (high performance liquid chromatography with UV-detection).
In a preferred embodiment of the invention, the flupirtine salt contained in the lyophilisate is selected from flupirtine mesilate, flupirtine besilate and/or flupirtine phosphate. Table 1shows the respective solubility of each of these flupirtine salts in water at 25° C. The solubility has been determined as described above.

Compound | Solubility (in fully desalinated water at 25° C., suspension stirred 30 minutes, filtrate by HPLC-UV) | Solubility
CCOC(=O)Nc1ccc(NCc2ccc(F)cc2)nc1N.O=S(=O)(O)c1ccccc1 [Flupirtine besilate] | 2.8 mg/mL | –
Flupirtine mesilate | – | 16.8 mg/mL
Flupirtine phosphate | – | 13.6 mg/mL
